Measurements reported in US11584775B2, “C4-modified oleanolic acid derivatives for inhibition of IL-17 and other uses” (REATA PHARMACEUTICALS, INC., priority 2015, dated 2023).

Assays:
NRF2 = assay: AREc32 luciferase reporter assay; format: cell-based, human; conditions: EC2×: concentration required to increase GST ARE Luciferase reporter activity by 2-fold; AREc32 cells, 19 hours
Text: B. AREc32 Luciferase Reporter Assay
The AREc32 luciferase reporter assay allows for quantitative assessment of the endogenous activity of the Nrf2 transcription factor in cultured mammalian cells. AREc32 cells are derived from MCF-7 human breast carcinoma cells that were stably transfected with a reporter construct that contains the firefly luciferase gene located downstream of eight copies of the rat GSTA2 antioxidant response element (ARE) sequence (Wang et al., 2006; CXR Biosciences). Active NRF2 binds to the ARE sequences and increases expression of the firefly luciferase gene. To assess the NRF2-activating potential of the test compounds, AREc32 cells were plated in black 96-well plates at a density of 20,000 cells per well in triplicate in DMEM+10% FBS+0.8 mg/mL Geneticin and incubated at 37° C. with 5% CO2 in a humidified atmosphere. The next day, cells were treated with DMSO (vehicle) or test compound (concentration ranges of 0.4-200 nM or 2-1000 nM) for 19 hours. Luciferase activity was determined using the ONE-Glo Luciferase assay (Promega). The luminescence signal was measured on a BMG Pherastar microplate reader. The mean luminescence value from test compound-treated wells was normalized to that from DMSO-treated wells and was represented as fold-induction. Data were analyzed using GraphPad Prism version 6.00 for Windows, GraphPad Software, La Jolla Calif. USA. A non-linear regression curve with log (agonist) vs. response using a variable slope was used to fit the data. Where applicable, a maximum threshold value of 50-fold over DMSO was set. EC2× values were interpolated from the curve. EC2× corresponds to the concentration of test compound required to increase GST ARE Luciferase reporter activity by 2-fold.

hIL17 = assay: IL-17 release from differentiated primary human T-cells (IL-17A HTRF assay); format: cell-based; conditions: inhibition of IL-17A levels; primary human CD4+ T cells differentiated into Th17 cells, 46-hour incubation
Experimental: D. IL-17 Release from Differentiated Primary Human T-Cells and Cell Viability
Primary human cryopreserved CD4+ T Cells (Lonza, donor #0000402103) were plated in Lymphocyte Growth Medium-3 (LGM-3, Lonza) according to the manufacturer's recommendations, and allowed to recover for approximately 3 hours at 37° C. with 5% CO2 in a humidified atmosphere. After the recovery step, cells were collected by centrifugation and re-plated in 96-well plates at a density of ˜140,000 cells per well in LGM-3 medium that contained DMSO (vehicle) or test compound (2-500 nM or 4-1000 nM concentration range). Triplicate wells were plated for each test condition. DMSO (final concentration ≤0.1%) was used as the vehicle. Immediately after plating, CD4+ T cells were activated by adding Dynabeads Human T-Activator CD3/CD28 (Life Technologies; bead-to-cell ratio of 1:2.5) and differentiated into Th17 cells by adding a mixture of the following cytokines: transforming growth factor-β (TGF-β, 5 ng/mL), IL-6 (20 ng/mL), IL-23 (20 ng/mL), and […] (10 ng/mL). Undifferentiated control cells received only cytokine IL-2 (50 ng/mL). All human recombinant cytokines were purchased from R&D Systems. Following a 46-hour incubation at 37° C. with 5% CO2 in a humidified atmosphere, the plates were centrifuged for 3 minutes at 250×g, and half of the supernatant was transferred to a new plate to be used in the IL-17A assay (see below). Cell viability was assessed in the original plate using the CyQuant Direct Assay (Life Technologies). CyQuant values from test compound samples were normalized to those from DMSO-treated samples. The concentration of IL-17A in the supernatant was measured using the Homogeneous Time-Resolved Fluorescence (HTRF) assay (Cisbio Bioassays) according to the manufacturer's protocol. The assay was performed at room temperature in low volume, solid white 384-well plates (Greiner Bio-One). Samples and standards (serially-diluted human recombinant IL-17A (0 to 5,000 pg/mL concentration range; Cisbio Bioassays) were incubated with the anti-human IL-17A antibody conjugate for 16 hours and fluorescence was measured using a Pherastar FS microplate reader (BMG Labtech) in the HTRF mode (excitation at 337 nm and emission at 665 nm and 620 nm). IL-17A concentrations were assessed in duplicate aliquots of supernatant from each well resulting in a total of six readings per test condition. The 665 nm/620 nm signal ratio was calculated and the concentration of IL-17A in each sample was determined by interpolation from the standard curve. IL-17A values from test compound samples were normalized to those from DMSO-treated samples. Data were analyzed using GraphPad Prism version 6.00 for Windows (GraphPad Software, La Jolla Calif. USA). A non-linear regression analysis with log (inhibitor) vs. normalized response using a variable slope was applied to fit the data and determine the IC50 values for inhibition of IL-17A levels and cell viability.

human RORγ = target: T1, human RORγ (Homo sapiens, UniProt P51449); assay: RORγ assay (GAL4-RORγ hybrid luciferase reporter, inverse-agonist activity); format: cell-based; conditions: GAL4-RORγ hybrid reporter cells, 23 hours
T1 sequence (P51449 269-508 limits assumed): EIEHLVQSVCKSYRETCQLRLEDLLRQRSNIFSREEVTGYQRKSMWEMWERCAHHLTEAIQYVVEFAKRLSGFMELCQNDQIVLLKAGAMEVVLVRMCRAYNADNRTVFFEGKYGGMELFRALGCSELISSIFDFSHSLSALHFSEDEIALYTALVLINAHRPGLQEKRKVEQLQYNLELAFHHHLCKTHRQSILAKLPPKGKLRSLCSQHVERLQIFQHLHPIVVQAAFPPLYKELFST
Text: C. RORγ Assay and Cell Viability
The RORγ assay system was purchased from Indigo Biosciences. This nuclear receptor assay utilizes a human cell line that has been engineered to express a hybrid form of the Human RAR-related Orphan Receptor Gamma (RORγ) at high levels. The N-terminal DNA binding domain (DBD) of the native RORγ receptor was substituted with the yeast GAL4-DBD to generate the GAL4-RORγ hybrid nuclear receptor. The reporter cell line is transfected with a plasmid that encodes the beetle luciferase gene under the control of the GAL4 upstream activating sequence (UAS). GAL4 binds to the UAS and increases transcription of downstream target genes. […] To assess the RORγ inverse-agonist activity of the test compounds, reporter cells were plated in white 96-well plates in triplicate and were treated with DMSO (vehicle) or test compound (concentration ranges of 0.4-200 nM or 2-1000 nM) at 37° C. with 5% CO2 in a humidified atmosphere for 23 hours. After this incubation, luciferin was added to the wells and luciferase activity was determined by measuring the luminescence signal using a BMG Pherastar microplate reader. Viability was determined using the Live Cell Multiplex Assay (Indigo Biosciences). Values from test compound samples were normalized to those from DMSO-treated samples. Data were analyzed using GraphPad Prism version 6.00 for Windows (GraphPad Software, La Jolla Calif. USA). A non-linear regression analysis with log (inhibitor) vs. normalized response using a variable slope was applied to fit the data and determine the IC50 values for inhibition of RORγ and cell viability.

[1] = test system: IFNγ-induced Nitric Oxide production; assay: Nitric oxide production assay in RAW 264.7 mouse macrophages; format: cell-based; conditions: RAW264.7, suppression of IFNγ-induced NO production normalized to cell viability (WST-1), RAW 264.7, 24 hours IFNγ
Experimental: A. Nitric Oxide Production Assay and Cell Viability
RAW 264.7 mouse macrophages were plated in 96-well plates at a density of 30,000 cells per well in triplicate in RPMI 1640+0.5% FBS and incubated at 37° C. with 5% CO2 in a humidified atmosphere. The next day, cells were pre-treated with DMSO (vehicle) or test compound (concentration ranges of 0.4-200 nM or 2-1000 nM) for 2 hours and then treated with recombinant mouse IFNγ (R&D Systems) for 24 hours. Nitric oxide concentration in media was determined using the Griess reagent system (Promega). Cell viability was determined using WST-1 reagent (Roche). Values from test compound samples were normalized to those from DMSO/IFNγ-treated samples. IC50 values were determined based on the suppression of IFNγ-induced Nitric Oxide production normalized to cell viability.

Row | Structure (SMILES) | EC2x: concentration giving 2-fold induction of ARE luciferase reporter (NRF2) [nM] | IC50 (hIL17) [nM] | IC50 (human RORγ) [nM] | IC50 [1] [nM]
1 | COC(=O)[C@]12CCC(C)(C)C[C@H]1[C@H]1C(=O)C=C3[C@@]4(C)C=C(C#N)C(=O)[C@](C)(CO)[C@@H]4CC[C@@]3(C)[C@]1(C)CC2 [Comparison Compound #301, reference compound] | 8 | 17 | 144 | 1.8
2 | COCOC[C@@]1(C)C(=O)C(C#N)=C[C@]2(C)C3=CC(=O)[C@@H]4[C@@H]5CC(C)(C)CC[C@]5(C(=O)OC)CC[C@@]4(C)[C@]3(C)CC[C@@H]12 [Comparison Compound #302, reference compound] | 78 | 24 | 91 | 13.1
3 | COC(=O)[C@]12CCC(C)(C)C[C@H]1[C@H]1C(=O)C=C3[C@@]4(C)C=C(C#N)C(=O)C[C@@H]4CC[C@@]3(C)[C@]1(C)CC2 [Compound T1] | 50 | 40 | 144 | 8.1
4 | COC(=O)[C@]12CCC(C)(C)C[C@H]1[C@H]1C(=O)C=C3[C@@]4(C)C=C(C#N)C(=O)[C@@](C)(C(=O)OC)[C@@H]4CC[C@@]3(C)[C@]1(C)CC2 [Compound T2, dimethyl (4S,4aR,6aS,6bR,8aS,12aS,12bR,14bS)-2-cyano-4,6a,6b,11,11,14b-hexamethyl-3,13-dioxo-4,4a,5,6,6a,6b,7,8,9,10,11,12,12a,12b,13,14b-hexadecahydropicene-4,8a(3H)-dicarboxylate] | 204 | 19 | 216 | 92
5 | COC(=O)[C@]12CCC(C)(C)C[C@H]1[C@H]1C(=O)C=C3[C@@]4(C)C=C(C#N)C(=O)[C@](C)(C(=O)OC)[C@@H]4CC[C@@]3(C)[C@]1(C)CC2 [Compound T3, dimethyl (4R,4aR,6aS,6bR,8aS,12aS,12bR,14bS)-2-cyano-4,6a,6b, 11,11,14b-hexamethyl-3,13-dioxo-4,4a,5,6,6a,6b,7,8,9,10,11,12,12a,12b,13,14b-hexadecahydropicene-4,8a(3H)-dicarboxylate] | 48 | 18 | 169 | 22.3
6 | COC(=O)[C@]12CCC(C)(C)C[C@H]1[C@H]1C(=O)C=C3[C@@]4(C)C=C(C#N)C(=O)[C@@](C)(C(F)F)[C@@H]4CC[C@@]3(C)[C@]1(C)CC2 [Compound T4, methyl (4aS,6aR,6bS,8aR,9S,12aS,14aR,14bS)-11-cyano-9-(difluoromethyl)-2,2,6a,6b,9,12a-hexamethyl-10,14-dioxo-1,3,4,5,6,6a,6b,7,8,8a,9,10,12a,14,14a,14b-hexadecahydropicene-4a(2H)-carboxylate] | 36 | 29 | 234 | 19.6
7 | COC(=O)[C@]12CCC(C)(C)C[C@H]1[C@H]1C(=O)C=C3[C@@]4(C)C=C(C#N)C(=O)[C@@](C)(O)[C@@H]4CC[C@@]3(C)[C@]1(C)CC2 [Compound T5] | 56 | 18 | 115 | 22.6
8 | COC(=O)[C@]12CCC(C)(C)C[C@H]1[C@H]1C(=O)C=C3[C@@]4(C)C=C(C#N)C(=O)[C@](C)(O)[C@@H]4CC[C@@]3(C)[C@]1(C)CC2 [Compound T6, methyl (4aS,6aR,6bS,8aR,9R,12aS,14aR,14bS)-11-cyano-9-hydroxy-2,2,6a,6b,9,12a-hexamethyl-10,14-dioxo-1,3,4,5,6,6a,6b,7,8,8a,9,10,12a,14,14a,14b-hexadecahydropicene-4a(2H)-carboxylate] | 30 | 32 | 115 | 9.2
